Assay results reported in patent US20200148646A1, “6-S[…] 7-S[…] ANALOGS AND THE USE THEREOF” (Purdue Pharma, L.P., priority 2013, published 2020).

What was measured:
Assay type in all cases: biochemical
μ-opioid receptor [1] = target: T1, μ-opioid receptor (Homo sapiens, UniProt P35372); test: μ-opioid receptor [35S]GTPγS functional assay, HEK-293 or CHO cells; conditions: for Emax: HEK-293 or CHO cells, relative to DAMGO
Procedure: (§1) [^35S]GTPγS functional assays were conducted using freshly thawed μ-receptor membranes prepared in-house from a cell line expressing recombinant opioid receptor in a HEK-293, CHO or U-2 OS cell background, or purchased from a commercial source (Perkin Elmer, Shelton, Conn.; or DiscovRx, Fremont, Calif.). Assay reactions were prepared by sequentially adding the following reagents to binding buffer (100 mM NaCl, 10 mM MgCl2, 20 mM HEPES, pH 7.4) on ice (final concentrations indicated): membrane protein (0.026 mg/mL), saponin ([…]), GDP ([…]) and [^35S]GTPγS (0.20 nM; Perkin Elmer, Shelton, Conn.). The prepared membrane solution (190 l/well) was transferred to 96-shallow well polypropylene plates containing 10 μl of 20× concentrated stock solutions of the agonist [D-Ala^2, N-methyl-Phe^4 Gly-ol^5]-enkephalin (DAMGO) prepared in dimethyl sulfoxide (DMSO). Plates were incubated for 30 min at about 25° C. with shaking. Reactions were terminated by rapid filtration onto 96-well Unifilter GF/B filter plates (Perkin Elmer, Shelton, Conn.) using a 96-well tissue harvester (Perkin Elmer, Shelton, Conn.) followed by three filtration washes with 200 μl of ice-cold wash buffer (10 mM NaH2PO4, 10 mM Na2HPO4, pH 7.4). Filter plates were subsequently dried at 50° C. for 2-3 hr. BetaScint scintillation cocktail (Perkin Elmer, Shelton, Conn.) was added (50 μl/well) and plates were counted using a Packard Top-Count for 1 min/well. Data were analyzed using the sigmoidal dose-response curve fitting functions in GraphPad PRISM v. 3.0, or an in-house function for non-linear, sigmoidal dose-response curve-fitting.
(§2) μ GTP EC50 is the concentration of a compound providing 50% of the maximal response for the compound at a μ-opioid receptor.
(§3) μ GTP Emax (%) is the maximal effect elicited by a compound relative to the effect elicited by DAMGO, a standard agonist. Generally, the μ GTP Emax (%) value measures the efficacy of a compound to treat or prevent pain or other Conditions.
In TABLE 2, activity response of certain Compounds of the Invention at the μ- and κ-opioid receptors using HEK-293 or CHO cells was determined as described above for functional assays.

μ-opioid receptor [2] = target: T1, μ-opioid receptor; test: μ-opioid receptor [35S]GTPγS functional assay, U-2 OS cells; parameters: host or cells: U-2 OS cells; conditions: for Emax: U2-OS cells, relative to DAMGO
Procedure: as §1, §2, §3
(§4) In TABLE 2A, activity response of certain Compounds of the Invention at the μ- and κ-opioid receptors using U-2 OS cells was determined as described above for functional assays.

human κ opioid receptor = human κ opioid receptor (Homo sapiens, UniProt P41145); test: κ-opioid receptor [35S]GTPγS functional assay, U-2 OS cells; parameters: expressed in transfected cells; host or cells: U-2 OS cells (in-house membranes); conditions: for Emax: U2-OS cells, relative to U69,593
Chain of human κ opioid receptor (P41145 whole entry): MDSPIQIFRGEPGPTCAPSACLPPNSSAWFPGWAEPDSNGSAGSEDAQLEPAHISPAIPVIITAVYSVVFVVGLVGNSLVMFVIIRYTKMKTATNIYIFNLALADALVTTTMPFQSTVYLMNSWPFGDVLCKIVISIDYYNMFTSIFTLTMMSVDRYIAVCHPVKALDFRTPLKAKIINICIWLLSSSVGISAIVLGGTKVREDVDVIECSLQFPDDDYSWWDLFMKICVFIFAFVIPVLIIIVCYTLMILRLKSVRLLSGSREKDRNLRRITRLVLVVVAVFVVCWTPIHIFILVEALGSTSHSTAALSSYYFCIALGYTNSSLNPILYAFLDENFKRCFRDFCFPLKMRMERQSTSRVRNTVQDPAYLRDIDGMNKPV
Procedure: Membranes from recombinant HEK-293 cells, CHO or U-2 OS cells expressing the recombinant human K opioid receptor (K) were prepared by lysing cells in ice cold hypotonic buffer (2.5 mM MgCl2, 50 mM HEPES, pH 7.4) (10 mL/10 cm dish) followed by homogenization with a tissue grinder/Teflon pestle. Functional [^35S]GTPγS binding assays were conducted as follows. K opioid receptor membrane solution was prepared by sequentially adding final concentrations of 0.026 μg/μl κ membrane protein (in-house), 10 μg/mL saponin, 3 μM GDP and 0.20 nM [^35S]GTPγS to binding buffer (100 mM NaCl, 10 mM MgCl2, 20 mM HEPES, pH 7.4) on ice. The prepared membrane solution (190 μl/well) was transferred to 96-shallow well polypropylene plates containing 10 μl of 20× concentrated stock solutions of agonist prepared in DMSO. Plates were incubated for 30 min at a temperature of about 25° C. with shaking. Reactions were terminated by rapid filtration onto 96-well Unifilter GF/B filter plates (Perkin Elmer, Shelton, Conn.) using a 96-well tissue harvester (Packard) and followed by three filtration washes with 200 μl ice-cold binding buffer (10 mM NaH2PO4, 10 mM Na2HPO4, pH 7.4). Filter plates were subsequently dried at 50° C. for 2-3 hours. Fifty μl/well scintillation cocktail (Perkin Elmer, Shelton, Conn.) was added and plates were counted in a Packard Top-Count for 1 min/well.
κ GTP EC50 is the concentration of a compound providing 50% of the maximal response for the compound at a κ receptor.
κ GTP Emax (%) is the maximal effect elicited by a compound relative to the effect elicited by U69,593.
as §4

T1 sequence (P35372 whole entry, species assumed): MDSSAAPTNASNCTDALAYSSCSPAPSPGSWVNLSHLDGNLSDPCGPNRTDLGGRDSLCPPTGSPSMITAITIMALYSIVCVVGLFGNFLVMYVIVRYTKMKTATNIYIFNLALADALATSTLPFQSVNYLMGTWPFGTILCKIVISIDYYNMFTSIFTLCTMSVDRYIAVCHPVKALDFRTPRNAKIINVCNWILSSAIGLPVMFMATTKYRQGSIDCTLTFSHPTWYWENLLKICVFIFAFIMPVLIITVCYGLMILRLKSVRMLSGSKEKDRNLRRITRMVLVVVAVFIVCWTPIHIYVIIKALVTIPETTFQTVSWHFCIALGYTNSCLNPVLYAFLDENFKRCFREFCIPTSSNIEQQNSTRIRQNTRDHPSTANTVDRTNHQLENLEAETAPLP

SMILES	EC50 (μ-opioid receptor [1]) [nM]	Emax (μ-opioid receptor [1]) [%]	EC50 (μ-opioid receptor [2]) [nM]	Emax (μ-opioid receptor [2]) [%]	EC50 (human κ opioid receptor) [nM]	Emax (human κ opioid receptor) [%]
COc1ccc2c(c1)[C@]13CCN(C)[C@H](C2)[C@H]1[C@H](O)C[C@H](OCCO)C3 [Compound 118, (4bS,6R,8R,8aS,9R)-6-(2-hydroxyethoxy)-3-methoxy-11-methyl-6,7,8,8a,9,10-hexahydro-5H-9,4b-(epiminoethano)phenanthren-8-ol]	> 20000	31.8 ± 5.76	–	–	–	–
CC(C)CCCC(=O)N[C@H]1C[C@@]2(O)[C@H]3Cc4ccc(O)cc4[C@@]2(CCN3C)CC1O (stereo partly drawn) [Compound 106, 5-methyl-N-((4bR,7S,8aS,9R)-3,6,8a-trihydroxy-11-methyl-6,7,8,8a,9,10-hexahydro-5H-9,4b-(epiminoethano)phenanthren-7-yl)hexanamide]	635 ± 43.7	82.3 ± 1.86	–	–	–	–
CN1CC[C@]23C[C@@H](OCCO)C[C@@H](O)[C@@H]2[C@H]1Cc1ccc(O)cc13 [Compound 120, (4bS,6R,8R,8aS,9R)-6-(2-hydroxyethoxy)-11-methyl-6,7,8,8a,9,10-hexahydro-5H-9,4b-(epiminoethano)phenanthrene-3,8-diol]	436 ± 34.7	36.3 ± 1.43	–	–	–	–
CN(C)CC(=O)N[C@H]1C[C@@]2(O)[C@H]3Cc4ccc(O)cc4[C@@]2(CCN3CC2CC2)C[C@@H]1O [Compound 111, N-((4bR,6S,7S,8aS,9R)-11-(cyclopropylmethyl)-3,6,8a-trihydroxy-6,7,8,8a,9,10-hexahydro-5H-9,4b-(epiminoethano)phenanthren-7-yl)-2-(dimethylamino)acetamide]	> 20000	1.67 ± 0.67	–	–	–	–
CCN[C@H]1C[C@@]2(O)[C@H]3Cc4ccc(O)cc4[C@@]2(CCN3C)C[C@@H]1O [Compound 114, (4bR,6S,7S,8aS,9R)-7-(ethylamino)-11-methyl-5,6,7,8,9,10-hexahydro-8aH-9,4b-(epiminoethano)phenanthrene-3,6,8a-triol]	> 20000	9.47 ± 0.74	–	–	–	–
CCN[C@H]1C[C@@]2(O)[C@H]3Cc4ccc(O)cc4[C@@]2(CCN3C)C[C@H]1O [Compound 113, (4bR,6R,7S,8aS,9R)-7-(ethylamino)-11-methyl-5,6,7,8,9,10-hexahydro-8aH-9,4b-(epiminoethano)phenanthrene-3,6,8a-triol]	> 20000	3.62 ± 3.99	–	–	–	–
CN1CC[C@]23CC(O)[C@@H](CC4CCCC4)C[C@@]2(O)[C@H]1Cc1ccc(O)cc13 (stereo partly drawn) [Compound 110, (4bR,7S,8aS,9R)-7-(cyclopentylmethyl)-11-methyl-5,6,7,8,9,10-hexahydro-8aH-9,4b-(epiminoethano)phenanthrene-3,6,8a-triol]	> 20000	42.7 ± 32.7	–	–	–	–
CN(C)[C@@H]1CC[C@@]2(O)[C@H]3Cc4ccc(O)cc4[C@@]2(CCN3C)C1 [Compound 107, (4bR,6R,8aS,9R)-6-(dimethylamino)-11-methyl-5,6,7,8,9,10-hexahydro-8aH-9,4b-(epiminoethano)phenanthrene-3,8a-diol]	1290 ± 20.3	36.3 ± 1.2	–	–	–	–
CC(C)CCCC(=O)N[C@H]1C[C@@]2(O)[C@H]3Cc4ccc(O)cc4[C@@]2(CCN3CC2CC2)C[C@@H]1O [Compound 115, N-((4bR,6S,7S,8aS,9R)-11-(cyclopropylmethyl)-3,6,8a-trihydroxy-6,7,8,8a,9,10-hexahydro-5H-9,4b-(epiminoethano)phenanthren-7-yl)-5-methylhexanamide]	> 20000	-1.04	–	–	–	–
CN[C@H]1C[C@@]2(O)[C@H]3Cc4ccc(O)cc4[C@@]2(CCN3C)C[C@H]1O [Compound 116, (4bR,6R,7S,8aS,9R)-11-methyl-7-(methylamino)-5,6,7,8,9,10-hexahydro-8aH-9,4b-(epiminoethano)phenanthrene-3,6,8a-triol]	13800 ± 600	28.9 ± 1.26	–	–	–	–
CN[C@@H]1C[C@@]2(O)[C@H]3Cc4ccc(O)cc4[C@@]2(CCN3CC2CC2)C[C@@H]1O [Compound 35, (4bR,6S,7R,8aS,9R)-11-(cyclopropylmethyl)-7-(methylamino)-5,6,7,8,9,10-hexahydro-8aH-9,4b-(epiminoethano)phenanthrene-3,6,8a-triol]	–	–	2.55 ± 0.33	25.7 ± 0.88	0.2 ± 0.042	97.3 ± 2.85
Oc1ccc2c(c1)[C@]13CCN(CC4CC4)[C@H](C2)[C@]1(O)C[C@H](CC1CCCC1)[C@H](O)C3 [Compound 54, (4bR,6R,7S,8aS,9R)-7-(cyclopentylmethyl)-11-(cyclopropylmethyl)-5,6,7,8,9,10-hexahydro-8aH-9,4b-(epiminoethano)phenanthrene-3,6,8a-triol]	–	–	> 20000	3	32.1 ± 2.76	97.7 ± 3.93
CC[C@H](C)C(=O)N[C@H]1C[C@@]2(O)[C@H]3Cc4ccc(O)cc4[C@@]2(CCN3CC2CC2)C[C@H]1O [Compound 59, (S)—N-((4bR,6R,7S,8aS,9R)-11-(cyclopropylmethyl)-3,6,8a-trihydroxy-6,7,8,8a,9,10-hexahydro-5H-9,4b-(epiminoethano)phenanthren-7-yl)-2-methylbutanamide]	–	–	45 ± 8.96	22.3 ± 1.45	35.6 ± 4.27	98.3 ± 3.18
CC(=O)N[C@H]1CC[C@]23CCN(CC4CC4)[C@H](Cc4ccc(O)cc42)[C@]3(O)C1 [Compound 47, N-((4bS,7S,8aS,9R)-11-(cyclopropylmethyl)-3,8a-dihydroxy-6,7,8,8a,9,10-hexahydro-5H-9,4b-(epiminoethano)phenanthren-7-yl)acetamide]	–	–	0.61 ± 0.17	44 ± 1.73	0.14 ± 0.027	105 ± 1.76
CC(C)C[C@H]1C[C@@]2(O)[C@H]3Cc4ccc(O)cc4[C@@]2(CCN3CC2CC2)C[C@H]1O [Compound 67, (4bR,6R,7S,8aS,9R)-11-(cyclopropylmethyl)-7-isobutyl-5,6,7,8,9,10-hexahydro-8aH-9,4b-(epiminoethano)phenanthrene-3,6,8a-triol]	–	–	> 20000	2	55.5 ± 8.5	89.3 ± 1.67
Oc1ccc2c(c1)[C@]13CCN(CC4CC4)[C@H](C2)[C@]1(O)C[C@@H](NCc1ccccc1)[C@@H](O)C3 [Compound 36, (4bR,6S,7R,8aS,9R)-7-(benzylamino)-11-(cyclopropylmethyl)-5,6,7,8,9,10-hexahydro-8aH-9,4b-(epiminoethano)phenanthrene-3,6,8a-triol]	–	–	2.36 ± 0.64	24.3 ± 0.88	0.34 ± 0.033	62 ± 3.06
COc1ccc2c(c1)[C@@]13CC[C@@H](O)C[C@@]1(O)[C@@H](C2)N(CC1CC1)CC3 [Compound 52, (4bS,7R,8aS,9R)-11-(cyclopropylmethyl)-3-methoxy-5,6,7,8,9,10-hexahydro-8aH-9,4b-(epiminoethano)phenanthrene-7,8a-diol]	–	–	1260	23.2 ± 4.07	1570 ± 97.4	91.3 ± 0.67
Oc1ccc2c(c1)[C@]13CCN(CC4CC4)[C@H](C2)[C@]1(O)C[C@@H](N1CCCC1)[C@@H](O)C3 [Compound 38, (4bR,6S,7R,8aS,9R)-11-(cyclopropylmethyl)-7-(pyrrolidin-1-yl)-5,6,7,8,9,10-hexahydro-8aH-9,4b-(epiminoethano)phenanthrene-3,6,8a-triol]	–	–	1.27 ± 0.19	23.3 ± 1.86	0.33 ± 0.022	80 ± 3.79
